Laboratory results: patent US9848603B2, “Methods for protecting plants with antifungal compositions” (priority 2008, dated 2017)

Tests used:
Bacillus cereus = test: Effect of NaD1 on bacterial growth; assay type: cell-based
Aspergillus nidulans = assay type: cell-based; settings: read-out: NaD1 IC50
Fusarium graminearum [1] = test: microbe, parasite or virus in culture; assay type: cell-based
[2] = test system: Fusarium oxysporum f. sp. vasinfectum (Fov); test: Glasshouse bioassay of transgenic and non-transgenic cotton seed coated with fungicide in Fov infected soil; settings: transgenic Coker expressing NaD1, seeds not coated with fungicide
Description: Cultures of Fov (isolate #24500 VCG 01111) were prepared in millet and incorporated into a soil mix. The infected soil was used to grow line 35.125.1 and non-transgenic Coker 315. The culture of Fov was prepared in ½ strength PDB (12 g/L potato dextrose) and grown for approximately one week at 26° C. The culture (5 to 10 mL) was used to infect autoclaved hulled millet which was then grown for 2 to 3 weeks at room temperature. The infected millet was incorporated into a pasteurized peat based soil mix at 1% (v/v), by vigorous mixing in a 200 L compost tumbler. The infected soil was transferred to plastic containers (10 L of mix per 13.5 L container).
The cotton seed was either non-coated or coated with the fungicide HEC5725 (active ingredient Fluoxastrobin, Bayer Crop Science, batch number 06529/0022) at a rate of 1 mL/kg of seed and allowed to dry prior to sowing. Water was added to facilitate even coating of the seed (62.5 mL/kg of seed). Untreated samples were treated with water only.
Forty eight seeds were planted for each test (transgenic and non-transgenic, coated and non-coated seed). Seed was sown directly into the containers, 12 seed per box in a 3×4 array. […]
Plants were grown for 7 weeks. Foliar symptom development was measured throughout the trial and disease score was determined by destructive sampling at the end of the trial. […]

filamentous fungi = assay type: cell-based; settings: Fov, F. graminearum, F. oxysporum f. sp. dianthi and lycopersici, F. solani, F. pseudograminearum, C. heterostrophus, A. brassicola, G. graminis var. tritici, T. basicola, V. dahliae, A. nidulans, S. sclerotiorum, B. cinerea, L. maculans
Thielaviopsis basicola = assay type: cell-based; settings: read-out: NaD1 IC50
Verticillium dahliae [3] = assay type: cell-based; settings: read-out: NaD1 IC50
Fov hyphae [4] = test: Immunogold electron microscopy of NaD1-treated hyphae; assay type: cell-based, Fusarium oxysporum f. sp. vasinfectum; settings: NaD1 (10 μM) for 2 h
Candida albicans = test: Effect of NaD1 on growth of yeast strains
Description: (§1) The effect of NaD1 on the growth of the yeast strains Candida albicans, Pichia pastoris and Saccharomyces cerevisiae (from Department of Microbiology, La Trobe University) was assayed in microtitre plates. Cells were grown in YPD for 48 h, then counted using a haemocytometer and diluted to a concentration of 5×10^4 cells/mL in fresh YPD. Cell suspension (100 μL) containing 0-10 μM NaD1 was added to the wells of a 96-well microtitre plate and incubated for 48 h at 30° C. Growth was determined by measuring the optical density at 595 nm using a microtitre plate reader. Each test was performed in quadruplicate.

Fov hyphae [5] = test: Membrane permeabilization of Fov hyphae, SYTOX green uptake; assay type: cell-based, Fusarium oxysporum f. sp. vasinfectum
[6] = test system: Spodoptera frugiperda (Sf21) insect cells; test: Effect of NaD1 on growth of insect cells
Description: The effect of NaD1 on the growth of Insect cells was determined as follows. Spodoptera frugiperda (Sf21) insect cells were grown to ˜90% confluency in Sf-900 II serum free media (Gibco™, 20 mL) in a 75 cm^2 tissue culture flask with a vented cap (Nunc). Cells were then split one in two with fresh media. Cell suspension was added to 96-well flat-bottomed microtitre plate wells (190 μL/well) and the cells were allowed to settle for 30 min prior to addition of NaD1 (10 μL) to give a final concentration of 0-10 μM. Growth was monitored until the cells reached confluency (˜48 h).

Pseudomonas aeruginosa = test: Effect of NaD1 on bacterial growth; assay type: cell-based
Escherichia coli = test: Effect of NaD1 on bacterial growth; assay type: cell-based
Fov hyphae [7] = test: Detection of reactive oxygen species (DHR123 oxidation) in response to NaD1; settings: NaD1 0.1, 2 and 10 μM or 10 μM NaD1R&A
F. graminearum hyphae [8] = assay type: cell-based, Fusarium graminearum; settings: various concentrations of NaD1
Fusarium graminearum [9] = assay type: cell-based; settings: defensin in combination with the triazole tebuconazole
Leptosphaeria maculans [10] = test: Fungal glasshouse bioassay of transgenic canola seedlings expressing NaD1; assay type: in vivo, canola (Brassica napus); settings: NaD1 expressed in transgenic canola line CAT13.26
Fov hyphae [11] = test: Isolation of NaD1 from treated hyphae (SDS-PAGE and immunoblotting of cytoplasmic contents)
Description: Fov hyphae were grown as described above prior to the addition of NaD1 (10 μM final concentration) to 1 mL of the culture. Samples (100 μL) were collected after 0, 5, 10, 30, 60, 90 and 120 min. Hyphae were collected by centrifugation (10 min, 10,000×g) and the supernatant was stored at −20° C. for analysis. Hyphae were washed (2×10 min) with KCl (0.6 M) to remove any ionically bound protein before they were resuspended in 50 mM CAPS buffer (pH 10.0) containing 10 mM DTT for 20 min. Hyphae were collected by centrifugation and the supernatant, containing cell wall proteins, was collected for analysis. The pellet (containing cells) was resuspended in water and the cells were lysed using glass beads (Sigma, 60 mg) and vortexing (3×10 min). Cellular debris was removed by centrifugation (16,000×g, 10 min) and the supernatant collected for analysis. All samples were then analyzed by SDS-PAGE and immunoblotting.

Staphylococcus aureus = test: Effect of NaD1 on bacterial growth; assay type: cell-based
[12] = test system: Fusarium oxysporum f. sp. vasinfectum (Fov); test: Growth cabinet bioassay of transgenic and non-transgenic cotton seed coated with fungicide in Fov infected soil; settings: transgenic Coker expressing NaD1, seeds not coated with fungicide
Description: The assay was conducted as described for the glasshouse assay except for the following modifications.
Thirty seeds were planted for each test (transgenic and non-transgenic, coated and non-coated seed). Seed was sown directly into the containers, 24 seed per box in a 4×6 array. Six seed for each test were sown randomly in each box. Seeds were germinated for 7 days, conditions were 16 hours light at 30° C. and 8 hours dark at 15° C., with a ramp of 2° C. per hour. For the remainder of the experiment the conditions were 16 hours light at 25° C. and 8 hours dark at 10° C. with a ramp of 2° C. per hour.
Plants were grown for 4 weeks. Foliar symptom development was measured throughout the trial and disease score was determined by destructive sampling at the end of the trial. The following rating was used to determine the disease score: 0=no symptoms, 1=vascular browning to base of stem, 2=vascular browning to cotyledons, 3=vascular browning past cotyledons, 4=vascular browning to true leaves, 5=dead. The average disease score was an average for all seeds that germinated.

Fov [13] = test: Effect of metal ions (CaCl2, MgCl2) on NaD1 activity against Fov; settings: NaD1 10 μM; growth of Fov
Description: The activity of NaD1 against Fov was examined as described with varying concentrations of CaCl2 (0.1, 0.2, 0.5, 1.0 and 2.0 μM) or MgCl2 (1.0, 2.0, 10, 20 and 50 μM) present in the medium to determine the effects of divalent cations on NaD1 activity.

Fov [14] = settings: transgenic cotton variety expressing NaD1, field trials; cited from earlier work
Fov hyphae [15] = test: Uptake of FITC-labeled dextrans into NaD1-treated hyphae
Description: The uptake of FITC-labeled dextran with NaD1 treatment of fungal hyphae was also studied. Fov hyphae were grown as described above and incubated with NaD1 (final concentration 0.1, 2, 10 or 50 μM) or an equivalent volume of water for 2 h at RT with gentle agitation. Hyphae were washed twice for 10 min with half-strength PDB to remove excess NaD1 before FITC dextrans of either 4 kDa (FD-4, Sigma-Aldrich) or 10 kDa (FD-10, Sigma-Aldrich) were added to a final concentration of 1 mg/mL. Hyphae were incubated for a further 30 min at RT and then washed twice with half strength PDB to remove excess dextrans. Fluorescence microscopy was used to visualize hyphae as described for SYTOX® green. A second assay was performed under the same conditions except the dextrans were added at the same time as NaD1.

Leptosphaeria maculans [16] = assay type: cell-based; settings: read-out: NaD1 IC50
Verticillium dahliae [17] = test: Field trial of transgenic and non-transgenic cotton seed coated with fungicide in Verticillium dahliae infected soil; assay type: in vivo
F. graminearum hyphae [18] = assay type: cell-based, Fusarium graminearum
Pichia pastoris = test: Effect of NaD1 on growth of yeast strains
Description: as §1

[19] = test system: Fusarium oxysporum f. sp. vasinfectum (Fov); assay type: cell-based; settings: read-out: NaD1 IC50
[20] = test system: Fusarium oxysporum f. sp. vasinfectum (Fov); test: Field trial of transgenic and non-transgenic cotton seed coated with fungicide in Fov infected soil; settings: NaD1 expressed in transgenic line 35.125.1, coated or uncoated
Description: Seed of the two lines were either not coated with fungicide or were coated with the fungicide HEC5725 (active ingredient fluoxastrobin, Bayer CropScience, batch number 06529/0022) at a rate of 1 mL/kg of seed, or with the commercial seed coat fungicides Dynasty® (Registered Trademark) (active ingredients 75 g/L azoxystrobin, 37.5 g/L metalaxyl-m, 12.5 g/L fludioxonil, Syngenta) at a rate of 2 mL/kg of seed, Jockey® (Registered Trademark) (active ingredient 167 g/L fluquinconazole, Bayer CropScience) at a rate of 20 mL/kg of seed or Redigo® (Registered Trademark) (active ingredient 100 g/L prothioconazole, Bayer CropScience) at a rate of 1 mL/kg of seed. All seed (coated and uncoated with fungicide) was coated with the insecticide Gaucho® (Registered Trademark) (600 g/L imidacloprid, Bayer CropScience) to control early season thrips and aphids. Seed was prepared to ensure even coating of fungicide and insecticide and allowed to dry prior to sowing.
Plants were grown at a farm in the Darling Downs region of Queensland, Australia. Seed was mechanically planted into soil known to be infected with Fusarium oxysporum f.sp. vasinfectum. […]
Emergence and plant survival were recorded. […] Statistical significance of the interaction of plant line and mortality was calculated using a Pearson's chi-square test.

Saccharomyces cerevisiae = test: Effect of NaD1 on growth of yeast strains
Description: as §1

[21] = read-out: NaD1 IC50, growth inhibition

Description for HeLa cells: To examine the effect of NaD1 on mammalian cell growth, HeLa cells were seeded at 50% in Dulbecco's modified Eagle's medium (Gibco™-BRL) containing 10% (v/v) fetal calf serum with or without NaD1 (10 μM) at 37° C. under an atmosphere of 5% CO2 and 95% air in a 60 mm Petri dish. Cells were incubated for 48 h at 37° C. before they were stained with trypan blue to check viability and counted using a haemocytometer.

In the case of “NaD1: plant defensin isolated from floral tissue of Nicotiana alata; also expressed in transgenic cotton line 35.125.1 and canola line CAT13.26 (RECKTESNTFPGICITKPPCRKACISEKFTDGHCSKILRRCLCTKPC; listed as Nicotiana alata)”, the effect on growth (Bacillus cereus; Gram-positive bacterial strain tested: Bacillus cereus) is reported as “no effect”, the IC50 (Bacillus cereus; growth inhibition, Bacillus cereus) is reported as > 10000 nM and the IC50 (Aspergillus nidulans) is reported as 800 nM. For the same substance, the “toxicity with Fusarium graminearum” value (Fusarium graminearum [1]; 0.24 μM NaD1 in the absence of fungicide) was “very low”, the “inhibition of fungal growth” value (Fusarium graminearum [1]; 0.5 μM defensin (alone)) was “about 13%” and the mortality [2] was “approximately half the mortality of the non-transgenic plants”. The “growth of filamentous fungi” value (filamentous fungi) was “inhibit growth”, the IC50 (Thielaviopsis basicola) was 800 nM and the IC50 (Verticillium dahliae [3]) was 750 nM. For the same substance, the “anti-NaD1 immunogold labeling of cytoplasm of granulated hyphae” value (Fov hyphae [4]) was “heavily labeled”, the effect on growth (Candida albicans) was “no effect” and the IC50 (Candida albicans; [21]) was > 10000 nM. The “permeabilization of hyphae (SYTOX green)” value (Fov hyphae [5]; 0.1, 2 or 10 μM NaD1 or 10 μM NaD1R&A) was “permeabilized hyphae”, the “NaD1 concentration up to which Vmax (maximum rate of fluorescence increase) rose linearly; saturable above” value (Fov hyphae [5]; SYTOX green uptake) was 6.25 µM and the “time after which fluorescence began to plateau” value (Fov hyphae [5]; SYTOX green uptake over time) was 90 min. For the same substance, the “NaD1 concentration up to which rate of permeabilization increased progressively” value (Fov hyphae [5]; above this (up to 50 μM) very little difference in kinetics) was 3 µM, the “lag time before permeabilization” value (Fov hyphae [5]; all NaD1 concentrations, SYTOX green uptake over time) was “around 20 min” and the “SYTOX green uptake / permeabilization” value (Fov hyphae [5]; at 0° C. (relative to 4° C.)) was “reduced even further”. The “SYTOX green uptake / permeabilization” value (Fov hyphae [5]; at 4° C.) was “only a small degree of permeabilization”, the “SYTOX green uptake / permeabilization” value (Fov hyphae [5]; at 10° C. (less than at 25° C.)) was “substantial uptake of SYTOX® green” and the SYTOX green uptake (Fov hyphae [5]; lowest concentration, 0.1 μM NaD1) was “small amount of SYTOX® green uptake”. For the same substance, the toxicity to cells ([6]; Spodoptera frugiperda Sf-21 insect cells) was “not toxic”, the IC50 ([6]; read-out: NaD1 IC50, growth inhibition, Spodoptera frugiperda (Sf21)) was > 10000 nM and the effect on growth (Pseudomonas aeruginosa; Gram-negative bacterial strain tested: Pseudomonas aeruginosa) was “no effect”. For the same substance, the IC50 (Pseudomonas aeruginosa; growth inhibition, Pseudomonas aeruginosa) was > 10000 nM, the effect on growth (Escherichia coli; Gram-negative bacterial strain tested: Escherichia coli) was “no effect” and the IC50 (Escherichia coli; growth inhibition, Escherichia coli) was > 10000 nM. The “ROS production (DHR123 oxidation fluorescence)” value (Fov hyphae [7]) was “concentration-dependent increase in fluorescence”, the SYTOX green uptake (F. graminearum hyphae [8]) was “increases with increasing concentrations of NaD1” and the toxicity to cells (HeLa cells; human HeLa cells) was “not toxic”. The IC50 (HeLa cells; read-out: NaD1 IC50, growth inhibition, HeLa cells) was > 10000 nM, the “synergy with tebuconazole (Io higher than Ee)” value (Fusarium graminearum [9]) was “Synergy” and the “average lesion size versus non-transgenic plants” value (Leptosphaeria maculans [10]; 10, 14 and 17 days after inoculation) was “significantly smaller”. For the same substance, the “disease scores versus non-transgenic RI64” value (Leptosphaeria maculans [10]; Days 10, 14 and 17) was “significantly lower disease scores”, the “time up to which amount of NaD1 in cytoplasm increased” value (Fov hyphae [11]; decreased slightly afterwards) was 60 min and the “time at which NaD1 uptake into cytoplasm occurred” value (Fov hyphae [11]; immunoblotting of cytoplasmic contents) was 20 min. For the same substance, the effect on growth (Staphylococcus aureus; Gram-positive bacterial strain tested: Staphylococcus aureus) was “no effect”, the IC50 (Staphylococcus aureus; growth inhibition, Staphylococcus aureus) was > 10000 nM and the mortality [12] was 7%. For the same substance, the “CaCl2 concentration for complete inactivation of NaD1” value (Fov [13]) was < 2 mM, the “MgCl2 concentration for complete inactivation of NaD1” value (Fov [13]) was 50 mM and the “antagonism of Ca2+ relative to Mg2+” value (Fov [13]) was “greater than 20 times”. The “protection from pathological effects of Fov infection versus untransformed parent variety” value (Fov [14]) was “significantly protected”, the “entry of 10 kDa FITC-dextran (23 Å) into NaD1-treated hyphae” value (Fov hyphae [15]; even at very high concentrations of NaD1) was “excluded” and the “entry of 4 kDa FITC-dextran (14 Å) into NaD1-treated hyphae” value (Fov hyphae [15]; same NaD1 concentration that led to SYTOX green uptake) was “entered hyphae”. The IC50 (Leptosphaeria maculans [16]) was 800 nM, the “yield versus untransformed Coker control” value (Verticillium dahliae [17]; transgenic line 35.125.1, seed coat not used) was “not significantly different” and the “uninfected plants at the end of the trial” value (Verticillium dahliae [17]; transgenic line expressing NaD1, non-coated seeds) was 3.6%. The “permeabilization activity among the plant defensins (ATP release)” value (F. graminearum hyphae [18]; 1 μM defensin) was “highest permeabilization activity”, the ATP release (F. graminearum hyphae [18]; 0.125 to 10 μM NaD1) was “concentration dependant release of ATP” and the effect on growth (Pichia pastoris) was “no effect”. The IC50 (Pichia pastoris; [21]) was > 10000 nM, the IC50 [19] was 1000 nM and the “resistance to fungal infection relative to non-transgenic lines” value [20] was “more resistant to fungal infection than the non-transgenic lines”. The effect on growth (Saccharomyces cerevisiae) was “no effect” and the IC50 (Saccharomyces cerevisiae; [21]) was > 10000 nM.
